Laboratory results reported in patent publication US7425537B2, “SH2 domain binding inhibitors” (The United States of America as represented by the …, priority 2000, dated 2008).

Assays:
[1] = tested on: erbB-2 driven breast cancer cells; test: Assay of cell proliferation (direct cell counting); assay type: cell-based; conditions: FIG. 26, read-out: IC50, cell growth inhibition
c-Met-Grb2 interaction = molecular target: T1, c-Met-Grb2 interaction (Mus musculus, UniProt Q60631); test: c-Met-Grb2 co-immunoprecipitation/immunoblot in intact 32D c-met cells after HGF/NK1 stimulation; assay type: cell-based, murine; conditions: 32D c-met cells pretreated 16 h with 30 nM or 300 nM prior to HGF/NK1 stimulation
T1 construct: endogenous in cells; host or cells: murine 32D c-met cells
Description: To characterize the time period and dose which the Grb2 SH2 domain inhibitor (antagonist) compound of formula 4 enters intact cells, the murine IL-3-dependent cell line 32D c-met was used. The effects of the inhibitor on c-Met-Grb2 interaction was examined by co-immunoprecipitation/immunoblot analysis. Cells were cultured in RPMI 1640+15% FBS and 5% WEHI-3B conditioned medium. Intact 32Dc-met cells were treated with different amount (3, 30, 300 nM) of the compound for 1, 2, 4, and 16 h, then briefly stimulated with HGF/NK1 for 10 minutes before lysis, immunoprecipitated with anti-Grb2 antibodies (Santa Cruz), and immunoblotting with anti-c-Met (Santa Cruz), or anti-Grb2 (Transduction Lab). HGF/NK1 stimulated co-immunoprecipitation of the 145 kDa c-Met beta subunit with Grb2. When cells were pretreated for 16 h with 30 nM or 300 nM compound of formula 4 prior to HGF/NK1 stimulation, the amount of HGF receptor that was co-immunoprecipitated with Grb2 was reduced by approximately 50%.

T1 sequence (Q60631 whole entry): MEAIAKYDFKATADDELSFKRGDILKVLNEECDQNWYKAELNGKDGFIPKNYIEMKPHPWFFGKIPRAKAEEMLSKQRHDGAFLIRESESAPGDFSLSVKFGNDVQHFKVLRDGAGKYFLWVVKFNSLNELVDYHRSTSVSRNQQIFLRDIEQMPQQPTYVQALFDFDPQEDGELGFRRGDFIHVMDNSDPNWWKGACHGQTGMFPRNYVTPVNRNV

NC(=O)C[C@@H]1NC(=O)C2(CCCCC2)NC(=O)[C@@H](CC(=O)O)[C@@H](c2ccc(CP(=O)(O)O)cc2)/C=C/C[C@@H](Cc2cccc3ccccc23)CNC1=O [Compound 233, 2-[(9S, 10S, 14S, 18S)-7, 16, 19-triaza-18-(carbamoylmethyl)-14-(naphthylmethyl)-8,17,20-trioxo-10-[4-(phosphonomethyl)phenyl]spiro[5.14]icos-11-en-9-yl]acetic acid]
melting point: 260 °C (dec.)
IC50 [1]: < 1000 nM

NC(=O)C[C@@H]1NC(=O)C2(CCCCC2)NC(=O)C[C@@H](c2ccc(CP(=O)(O)O)cc2)C=CC[C@@H](Cc2cccc3ccccc23)CNC1=O [Compound 4a, 2-[(9S, 13S, 17R)-8, 11, 20-triaza-13-(naphthylmethyl)-7, 10, 19-trioxo-17-[4-(phosphonomethyl)phenyl]spiro[5.14]icos-15-en-9-yl]acetamide]
Reduction of amount of HGF receptor co-immunoprecipitated with Grb2 (c-Met-Grb2 interaction): approximately 50%
